The text below walks through data of paper PMC6790002, “Synthesis and Biological Evaluation of Structurally Varied 5′-/6′-Isonucleosides and Theobromine-Containing N-Isonucleosidyl Derivatives” (Pharmaceuticals, 2019).

Where “and” joins values, the source holds several entries; their conditions need not be identical. Equal entries are not always repeated. Structures can show the parent of a compound that is named as a salt. Where two headings read alike, the source gives them in different places.

For assay [1], the target named is T1, acetylcholinesterase (AChE, from Electrophorus electricus) (Electrophorus electricus, UniProt O42275).
T1 construct: purchased Fluka
T1 sequence (O42275 24-633): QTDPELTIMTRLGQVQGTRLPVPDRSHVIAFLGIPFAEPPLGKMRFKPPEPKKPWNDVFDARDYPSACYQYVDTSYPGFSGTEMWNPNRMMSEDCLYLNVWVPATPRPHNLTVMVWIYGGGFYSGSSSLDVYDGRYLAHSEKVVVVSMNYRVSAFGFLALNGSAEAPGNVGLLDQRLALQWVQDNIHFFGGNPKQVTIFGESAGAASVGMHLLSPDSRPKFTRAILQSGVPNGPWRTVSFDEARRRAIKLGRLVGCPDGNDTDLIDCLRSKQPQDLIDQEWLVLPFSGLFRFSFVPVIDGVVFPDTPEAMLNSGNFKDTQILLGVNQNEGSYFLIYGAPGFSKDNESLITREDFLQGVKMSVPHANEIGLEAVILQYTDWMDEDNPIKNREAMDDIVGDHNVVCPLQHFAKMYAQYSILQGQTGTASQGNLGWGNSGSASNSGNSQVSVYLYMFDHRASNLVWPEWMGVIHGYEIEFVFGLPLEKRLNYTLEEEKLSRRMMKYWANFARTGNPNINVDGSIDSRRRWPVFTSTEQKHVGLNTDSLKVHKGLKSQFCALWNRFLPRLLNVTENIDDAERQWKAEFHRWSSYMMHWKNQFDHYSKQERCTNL
In words: Acetylcholinesterase inhibition, Ellman's method. It counts as biochemical. As to conditions: for inhibition at 50 µM / % Inhibition of AChE: at 50 µM compound.

The target of assay [2] is T2, butyrylcholinesterase (BChE, from equine serum) (Equus caballus, UniProt P81908).
T2 construct: Butyrylcholinesterase (from equine serum) was bought from Sigma; purchased Sigma; host or cells: equine serum
T2 sequence (P81908 whole entry): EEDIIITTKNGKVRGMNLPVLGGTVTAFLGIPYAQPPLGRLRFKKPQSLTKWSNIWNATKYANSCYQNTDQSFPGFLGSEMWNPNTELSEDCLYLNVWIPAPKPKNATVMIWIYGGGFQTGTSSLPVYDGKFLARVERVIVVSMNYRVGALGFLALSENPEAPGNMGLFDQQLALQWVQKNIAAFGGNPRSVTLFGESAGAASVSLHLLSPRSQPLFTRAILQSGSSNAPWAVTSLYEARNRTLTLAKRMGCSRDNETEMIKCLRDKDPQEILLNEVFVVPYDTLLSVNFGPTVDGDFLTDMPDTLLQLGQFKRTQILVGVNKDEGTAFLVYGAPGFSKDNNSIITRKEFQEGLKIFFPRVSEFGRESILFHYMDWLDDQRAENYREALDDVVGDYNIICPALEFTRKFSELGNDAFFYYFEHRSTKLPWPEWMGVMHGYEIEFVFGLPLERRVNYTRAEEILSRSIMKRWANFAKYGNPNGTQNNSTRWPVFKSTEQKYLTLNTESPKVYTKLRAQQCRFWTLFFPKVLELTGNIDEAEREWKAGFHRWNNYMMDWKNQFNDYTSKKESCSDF
Nature of the assay: Butyrylcholinesterase inhibition, Ellman's method. The class given is biochemical. The conditions noted are these: for inhibition at 50 µM / % Inhibition of BChE: at 50 µM compound. In general terms: DTNB colorimetry detects thiols as they appear.

Assay [3] relates to acetylcholinesterase (AChE). The conditions noted are these: Figure 1, cited from earlier work.

One may read the inhibition as the drop in the measured response relative to a control, in per cent. Read a low inhibition as a weak effect. For `CCCCCCCCCCCCO[C@@H]1[C@H]2OC(C)(C)O[C@H]2O[C@@H]1Cn1cnc2c(Cl)nc(NC(C)=O)nc21` [Compound 5, 2-Acetamido-6-chloro-9-(5-deoxy-3-O-dodecyl-1,2-O-isopropylidene-α-D-xylofuranos-5-yl)purine], the inhibition at 50 µM in assay [1] worked out at 25.3%; in assay [2], 32.5%.
`CCCCCCCCCCCCO[C@H]1[C@@H](Cn2c(=O)c3c(ncn3C)n(C)c2=O)OC(NS(C)(=O)=O)[C@@H]1OC(C)=O` (stereo partly drawn) [Compound 12, N-[2-O-Acetyl-1,5-dideoxy-5-(3,7-dimethyl-3,7-dihydro-2,6-dioxo-1H-purin-1-yl)-3-O-dodecyl-α,β-D-xylofuranos-1-yl]methanesulfonamide]: in assay [1], the “inhibitory effect on AChE (in words)” value is given as “devoid of any inhibitory effects” and the inhibition at 50 µM amounted to 1%. Further, in assay [2], the “inhibitory effect on BChE (in words)” value was “devoid of any inhibitory effects” and the inhibition at 50 µM was found to be 4.6%.
Turning to `CCCCCCCCCCCCO[C@@H]1[C@H]2OC(C)(C)O[C@H]2O[C@@H]1Cn1cnc2c(N)ncnc21` [Compound 4, 9-(5-Deoxy-3-O-dodecyl-1,2-O-isopropylidene-α-D-xylofuranos-5-yl)adenine], the figures for the inhibition at 50 µM in assay [1] and in assay [2] were 16.3% and 11.9%, respectively.
With “N-[2,4-Di-O-acetyl-1,6-dideoxy-6-(3,7-dimethyl-3,7-dihydro-2,6-dioxo-1H-purin-1-yl)-3-O-dodecyl-α,β-D-glucopyranos-1-yl]methanesulfonamide [Compound 22]”, the “% Inhibition of AChE” value in assay [1] came to 28.3%. Further, in assay [2] (50 µM), the “% Inhibition of BChE” value was 53% and 52.6%.
With `CCCCCCCCCCCCO[C@H]1[C@@H](Cn2c(=O)c3c(ncn3C)n(C)c2=O)OC(O)[C@@H]1O` (stereo partly drawn) [Compound 10, 1-(5-Deoxy-3-O-dodecyl-α,β-D-xylofuranos-5-yl)-3,7-dimethyl-3,7-dihydro-1H-purine-2,6-dione], the inhibition at 50 µM in assay [1] was determined as 2.6%; in assay [2], 22.9%.
As for `CCCCCCCCCCCCO[C@@H]1[C@H]2OC(C)(C)O[C@H]2O[C@@H]1Cn1c(=O)cc[nH]c1=O` [Compound 7, 3-(5-deoxy-3-O-dodecyl-1,2-O-isopropylidene-α-D-xylofuranos-5-yl)uracil], the inhibition at 50 µM in assay [1] was 17.8%; in assay [2] it was 7.5%.
As for `COc1ccc2c3c1O[C@H]1C[C@@H](O)C=C[C@@]31CCN(C)C2` [Galantamine hydrobromide, galantamine hydrobromide, reference compound], in assay [2], the “type of inhibition, BChE” value is on record as “competitive” and the inhibition at 50 µM worked out at 86.3%.
As for “1-(5-Deoxy-3-O-dodecyl-α-D-xylofuranos-5-yl)-3,7-dimethyl-3,7-dihydro-1H-purine-2,6-dione [Compound 18]”, in assay [1], the “% Inhibition of AChE” value came out at 14.5%. Further, the “% Inhibition of BChE” value in assay [2] is 19.6%.
Turning to `CO[C@H]1O[C@H](Cn2c(=O)c3c(ncn3C)n(C)c2=O)[C@@H](OC(C)=O)[C@H](OC(C)=O)[C@H]1OC(C)=O` [A], the “inhibition of AChE (in words)” value in assay [3] (theobromine 6′-isonucleoside) was “good inhibitory effect”.
Regarding `CCCCCCCCCCCCO[C@@H]1[C@H]2OC(C)(C)O[C@H]2O[C@@H]1Cn1c(=O)c2c(ncn2C)n(C)c1=O` [Compound 3, 1-(5-Deoxy-3-O-dodecyl-1,2-O-isopropylidene-α-D-xylofuranos-5-yl)-3,7-dimethyl-3,7-dihydro-1H-purine-2,6-dione], the inhibition at 50 µM in assay [1] was 13.8%; in assay [2] it was 11.7%.
As to `CCCCCCCCCCCCO[C@@H]1[C@@H](OC(C)=O)[C@@H](N=[N+]=[N-])O[C@@H]1Cn1c(=O)c2c(ncn2C)n(C)c1=O` [Compound 13-α, 1-(2-O-Acetyl-1-azido-1,5-dideoxy-3-O-dodecyl-α-D-xylofuranos-5-yl)-3,7-dimethyl-3,7-dihydro-1H-purine-2,6-dione], in assay [1], the “inhibitory effect on AChE (in words)” value is “devoid of any inhibitory effects” and testing at 50 µM gave an inhibition of 18.9%. Also, in assay [2], the “inhibitory effect on BChE (in words)” value is given as “devoid of any inhibitory effects” and the inhibition at 50 µM was found to be 35%.
As for `CCCCCCCCCCCCO[C@@H]1[C@H]2OC(C)(C)O[C@H]2O[C@@H]1Cn1ccc(=O)n(C[C@H]2O[C@@H]3OC(C)(C)O[C@@H]3[C@H]2OCCCCCCCCCCCC)c1=O` [Compound 8, 1,3-bis-(5-deoxy-3-O-dodecyl-1,2-O-isopropylidene-α-D-xylofuranos-5-yl)uracil], the inhibition at 50 µM in assay [1] was 26.1%; in assay [2] it was 32.8%.
In general, Ki refers to the dissociation constant of the complex between target and ligand, obtained from inhibition or displacement. On to `CCCCCCCCCCCCO[C@@H]1[C@H]2OC(C)(C)O[C@H]2O[C@@H]1COc1ccnc(OC[C@H]2O[C@@H]3OC(C)(C)O[C@@H]3[C@H]2OCCCCCCCCCCCC)n1` [Compound 9, 2,4-bis-O-(5-deoxy-3-O-dodecyl-1,2-O-isopropylidene-α-D-xylofuranos-5-yl)uracil], for which, in assay [1], the “Ki′ (uncompetitive inhibition), AChE” value was 103.0 µM and 103.0 ± 4.3 µM; the “type of inhibition, AChE” value is “mixed-type”; the inhibition at 50 µM was 40.3%. Further, the Ki in assay [1] (read-out: Ki (competitive inhibition), AChE) turned out to be 17.5 ± 0.7 µM. The molecule further had an inhibition at 50 µM in assay [2] of 29.8%.
On to `CC(=O)O[C@H]1C(NS(C)(=O)=O)O[C@H](Cn2c(=O)c3c(ncn3C)n(C)c2=O)[C@@H]1OCc1ccccc1` (some centres unmarked) [B], for which the “inhibition of AChE (in words)” value in assay [3] (N-isonucleosidyl sulfonamide) was “micromolar and selective inhibition of AChE”.
On to `CCCCCCCCCCCCO[C@@H]1[C@H]2OC(C)(C)O[C@H]2O[C@@H]1Cn1ccc(=O)[nH]c1=O` [Compound 6, 1-(5-Deoxy-3-O-dodecyl-1,2-O-isopropylidene-α-D-xylofuranos-5-yl)uracil], for which the results for the inhibition at 50 µM in assay [1] and in assay [2] were 22.5% and 28.5%, respectively.
